Experiment [1] deals with cPLA2 (Homo sapiens, UniProt P47712). Conditions: 293 T cells transfected with Flag-tagged mutants; N-terminal C2D and CD1 deletion. On the procedure: (§1) DARTS assay. Drug affinity responsive target stability (DARTS) assay was performed based on previously reported methods^4. In brief, cell lysate was extracted by M-PER™ Mammalian Protein Extraction Reagent (78501, Thermo Fisher), briefly centrifuged, and mixed with drugs or DMSO for 1 hour on a rotator. Pronase (P5147, Sigma-Aldrich) was added in the mixture for 15 minutes at room temperature. Digestion was stopped by 10 minute incubation with protease inhibitor cocktail on ice. Samples were boiled in SDS loading buffer for SDS-PAGE and Western blot.
(§2) Site-directed mutagenesis.
(§3) Construction of plasmids. The construction of cPLA2 mutant plasmids was based on serial C-terminal and N-terminal deletion of the amino acid sequences associated with functional structure. Each plasmid carried a flag tag. The constructions were: full length cPLA2 (1-750), cPLA2 (126-750), cPLA2 (406-750), cPLA2 (1-479), and cPLA2 (1-144).
Target sequence in this assay (P47712 126-749): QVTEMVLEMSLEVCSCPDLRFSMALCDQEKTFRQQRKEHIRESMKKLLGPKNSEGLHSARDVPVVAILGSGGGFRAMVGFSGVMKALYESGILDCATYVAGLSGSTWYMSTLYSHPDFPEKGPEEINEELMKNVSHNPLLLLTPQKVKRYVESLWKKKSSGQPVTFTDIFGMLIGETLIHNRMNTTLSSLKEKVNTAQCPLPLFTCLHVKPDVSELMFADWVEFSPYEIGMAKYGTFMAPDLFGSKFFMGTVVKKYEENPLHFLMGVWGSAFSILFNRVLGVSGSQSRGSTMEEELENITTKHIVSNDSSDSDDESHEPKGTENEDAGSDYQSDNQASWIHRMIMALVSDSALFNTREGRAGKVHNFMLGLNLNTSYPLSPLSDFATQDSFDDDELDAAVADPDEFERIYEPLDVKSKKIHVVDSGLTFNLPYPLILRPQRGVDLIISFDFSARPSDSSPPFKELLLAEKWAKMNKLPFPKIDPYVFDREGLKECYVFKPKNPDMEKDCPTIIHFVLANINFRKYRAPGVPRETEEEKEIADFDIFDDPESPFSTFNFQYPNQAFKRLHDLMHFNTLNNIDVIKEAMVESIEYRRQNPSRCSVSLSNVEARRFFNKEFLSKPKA

Experiment [2] addresses cPLA2 (Homo sapiens, UniProt P47712, S505A). Conditions: 293 T cells transfected with point mutant plasmid. The method, then:
as §1, §2, §3

Experiment [3] concerns the target cPLA2 (Homo sapiens, UniProt P47712). Conditions: 293 T cells transfected with Flag-tagged mutants. On the procedure: as §1, §2, §3
Target sequence in this assay (P47712 1-479): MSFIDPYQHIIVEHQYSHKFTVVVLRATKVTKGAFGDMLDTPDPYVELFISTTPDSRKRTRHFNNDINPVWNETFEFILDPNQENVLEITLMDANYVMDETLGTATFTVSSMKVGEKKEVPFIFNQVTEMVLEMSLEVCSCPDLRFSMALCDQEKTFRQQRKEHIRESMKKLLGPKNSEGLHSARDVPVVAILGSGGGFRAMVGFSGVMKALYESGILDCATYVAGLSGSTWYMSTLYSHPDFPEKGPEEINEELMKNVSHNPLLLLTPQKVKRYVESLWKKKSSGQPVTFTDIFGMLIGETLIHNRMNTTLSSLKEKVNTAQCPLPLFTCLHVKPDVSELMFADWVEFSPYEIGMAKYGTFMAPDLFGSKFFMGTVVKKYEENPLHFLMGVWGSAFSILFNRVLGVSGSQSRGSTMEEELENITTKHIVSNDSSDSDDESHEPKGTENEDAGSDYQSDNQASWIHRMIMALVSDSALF
The test system of experiment [4] is cPLA2. Conditions: series of protease to cell lysate ratios. The method, then: as §1, §2, §3
In experiment [5] the test system is NF-κB p65. Conditions: TNF-α 10 ng/mL; FFD 10 μM, TFD 1 μM.
The test system of experiment [6] is TNF-α-activated NF-κB reporter gene. Put plainly: NF-κB luciferase reporter in control and cPLA2 knockout Raw264.7 cells. Type of experiment: cell-based. On the procedure: Screening FDA approved drugs in vitro. NF-κB-bla THP-1 cell line (K1662, Invitrogen) was cultured in 96-well plates and FDA approved drugs (10 μM, L1300, Selleckchem) were added and cultured overnight. Next day, cells were incubated with TNF-α (10 ng/ml, PHC3015, Invitrogen) for 6 hours and LiveBLAzer™ FRET-B/G Loading Kit with CCF2-AM (K1095, Invitrogen) was used to detect the β-lactamase activity via SpectraMax i3x system (5025027A Molecular Devices) with excitation wavelength at 409 nm and emission wavelengths at 520 nm or 470 nm. This process was performed in triplicate. Subsequently, the drugs from first screening that could inhibit TNF-α induced NF-κB activity underwent further screening by NF-κB luciferase assay. After transfection with NF-κB luciferase reporter gene and Renilla plasmids for 8 hours, cells were treated with drugs (10 μM) overnight, followed by TNF-α (10 ng/ml) stimulation for 6 hours, then bioluminescence was measured by Dual-Luciferase® Reporter Assay kit (E1910, Promega). The data were analyzed by Graphpad Prism software (GraphPad Software, San Diego, Calif.).
Knock out of cPAL2 by CRISPR-Cas9. Knockout cells were generated in accordance with a previously published protocol. gRNA was inserted into the lentiCRISPR v2 vector. Packaging the inserted vector into lentivirus was completed by co-transfecting the lentiCRISPR v2, VSVG and ΔR6.7 in 293T cells. After packaging, we transfected the virus into RAW264.7 cells over 8 hours. Puromycin (2 μg/ml) was used to select the stably transfected RAW264.7 cells
For orientation: A reporter such as luciferase makes a cellular process visible.

Sequence of cPLA2 (Homo sapiens, UniProt P47712, S505A) (P47712 whole entry S505A): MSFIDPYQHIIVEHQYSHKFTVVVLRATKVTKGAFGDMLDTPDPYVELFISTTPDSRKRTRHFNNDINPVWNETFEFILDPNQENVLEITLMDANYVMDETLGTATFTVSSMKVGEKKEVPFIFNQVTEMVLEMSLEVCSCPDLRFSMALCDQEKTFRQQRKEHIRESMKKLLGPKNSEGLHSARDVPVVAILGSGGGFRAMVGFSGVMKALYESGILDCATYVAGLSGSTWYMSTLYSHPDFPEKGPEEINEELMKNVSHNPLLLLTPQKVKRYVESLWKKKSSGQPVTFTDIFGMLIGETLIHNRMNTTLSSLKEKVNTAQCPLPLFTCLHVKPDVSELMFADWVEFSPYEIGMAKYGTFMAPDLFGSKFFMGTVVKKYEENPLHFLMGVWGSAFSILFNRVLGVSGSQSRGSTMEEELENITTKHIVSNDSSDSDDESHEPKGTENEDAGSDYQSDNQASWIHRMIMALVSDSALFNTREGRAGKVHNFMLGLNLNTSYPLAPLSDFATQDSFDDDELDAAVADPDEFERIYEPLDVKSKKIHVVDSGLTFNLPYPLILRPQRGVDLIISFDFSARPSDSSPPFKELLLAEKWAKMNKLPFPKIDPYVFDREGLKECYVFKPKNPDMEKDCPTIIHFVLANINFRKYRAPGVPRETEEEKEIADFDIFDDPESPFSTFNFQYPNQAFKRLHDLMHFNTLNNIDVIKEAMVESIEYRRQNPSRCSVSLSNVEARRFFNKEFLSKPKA

As for `CC(C)(C(=O)O)c1ccc(C(O)CCCN2CCC(C(O)(c3ccccc3)c3ccccc3)CC2)cc1` (centres unmarked) [fexofenadine], in experiment [1], the “DARTS protective effects on cPLA2 (126-750) and cPLA2(406-750)” value was “retained protective effects”. The “DARTS protective effect on Ser-505 to Ala point mutant of cPLA2” value in experiment [2] is on record as “lost its protective effect”. Besides, in experiment [3], the “DARTS protective effects on mutants lacking the CD2 domain, cPLA2 (1-479) and cPLA2 (1-144)” value is “did not show any protective effects”. Moreover, the “protection of cPLA2 from protease (DARTS, Western blot)” value in experiment [4] is on record as “protected”. Also, in experiment [5], the “TNF-α-induced nuclear translocation and DNA-binding activity of p65” value is listed as “inhibited”. In addition, in experiment [6] (cPLA2 knockout cells), the “inhibition of TNF-α-activated NF-κB reporter gene in cPLA2 knockout cells” value is listed as “lost its inhibition”. Besides, in experiment [6] (point mutant Ser-505-Ala), the “anti-TNF/NF-κB activity in cPLA2 knockout cells transfected with cPLA2 S505A” value is “could not rescue”. The “anti-TNF/NF-κB activity in cPLA2 knockout cells transfected with a cPLA2 expression plasmid” value in experiment [6] (re-established expression of cPLA2) was “reinstated”.

Source of the values: US20200022964A1, “COMPOSITIONS AND METHODS FOR TREATMENT OF INFLAMMATORY AUTOIMMUNE DISEASES” (New York University, priority 2018, published 2020).
